Reference: ChEMBL document CHEMBL4334448, “Chivosazole A Modulates Protein-Protein Interactions of Actin” (J Nat Prod, 2019)
Active and inactive are the calls of the source. No cut-off for these calls is given here.

Assays:
[1] = molecular target: Actin, alpha skeletal muscle (Oryctolagus cuniculus) (UniProt P68135); assay: Inhibition of rabbit skeletal muscle alpha-actin polymerization induced by Mg-ATP assessed as decrease in elongation rate at 500 nM to 5 uM measured every 1 sec for 5 mins in presence of Turkey gizzard alpha-actinin and […] fluorescent labelled actin by TIRF microscopy analysis
[2] = molecular target: Actin, alpha skeletal muscle (Oryctolagus cuniculus) (UniProt P68135); assay: Inhibition of immobilized rabbit skeletal muscle alpha-actin interaction with gelsolin at 12.5 uM pretreated for 30 mins followed by gelsolin addition measured after 1 hr by pull-down assay
HUVEC [3] = assay: Induction of morphological changes in human HUVEC cells assessed as disruption of F-actin fibers at 10 nM to 100 nM incubated for 1 hr by rhodamine-phalloidin staining based fluorescence assay; assay type: functional, cell-based
[4] = molecular target: Actin, alpha skeletal muscle (Oryctolagus cuniculus) (UniProt P68135); assay: Inhibition of immobilized rabbit skeletal muscle alpha-actin interaction with cofilin at 56 uM pretreated for 30 mins followed by cofilin addition measured after 1 hr by pull-down assay
[5] = molecular target: Actin, alpha skeletal muscle (Oryctolagus cuniculus) (UniProt P68135); assay: Inhibition of immobilized rabbit skeletal muscle alpha-actin interaction with profilin at 66.7 uM pretreated for 30 mins followed by profilin addition measured after 1 hr by pull-down assay
[6] = molecular target: Actin, alpha skeletal muscle (Oryctolagus cuniculus) (UniProt P68135); assay: Inhibition of immobilized rabbit skeletal muscle alpha-actin interaction with thymosin-beta4 assessed as decrease in cross-linked complex formation at 40 uM pretreated for 30 mins followed by thymosin-beta4 addition measured after 45 mins by cross-linking assay
[7] = molecular target: Actin, alpha skeletal muscle (Oryctolagus cuniculus) (UniProt P68135); assay: Binding affinity to immobilized rabbit skeletal muscle alpha-actin assessed change in retention time of G-actin dimers at 40 uM and pH 6.8 to 8 treated for 30 mins in absence of thymosin-beta4 by size-exclusion chromatography
HUVEC [8] = assay: Induction of morphological changes in human HUVEC cells assessed as amorphous actin aggregation in nucleus incubated for 1 hr by Hoechst staining based fluorescence assay; assay type: functional, cell-based
HUVEC [9] = assay: Inhibition of cell migration in human HUVEC cells assessed as decrease in cell velocity measured after 16 hrs by crystal violet staining based scratch assay; assay type: functional
[10] = molecular target: Actin, alpha skeletal muscle (Oryctolagus cuniculus, UniProt P68135); assay: (§1) Inhibition of rabbit skeletal muscle alpha-actin polymerization measured after 24 hrs in presence of ATP and fluorescent pyrene-labelled actin by fluorescence based assay
[11] = molecular target: Actin, alpha skeletal muscle (Oryctolagus cuniculus) (UniProt P68135); assay: as §1
[12] = molecular target: Actin, alpha skeletal muscle (Oryctolagus cuniculus) (UniProt P68135); assay: Binding affinity to immobilized rabbit skeletal muscle alpha-actin assessed as formation of G-actin dimers at 40 uM and pH 6.8 to 8 treated for 30 mins in absence of thymosin-beta4 by size-exclusion chromatography
[13] = molecular target: Actin, alpha skeletal muscle (Oryctolagus cuniculus) (UniProt P68135); assay: Induction of rabbit skeletal muscle alpha-actin depolymerization assessed as destabilization of F-actin 5 uM measured every 15 sec for 90 mins in presence of Turkey gizzard alpha-actinin and […] fluorescent labelled actin by TIRF microscopy analysis
[14] = molecular target: Actin, alpha skeletal muscle (Oryctolagus cuniculus) (UniProt P68135); assay: Inhibition of immobilized rabbit skeletal muscle alpha-actin interaction with thymosin-beta4 at 40 uM pretreated for 30 mins followed by thymosin-beta4 addition measured after 45 mins by cross-linking assay
HUVEC [15] = assay: Antiproliferative activity against human HUVEC measured after 72 hrs; assay type: cell-based
[16] = molecular target: Actin, alpha skeletal muscle (Oryctolagus cuniculus) (UniProt P68135); assay: Inhibition of rabbit skeletal muscle alpha-actin nucleation at 500 nM to 5 uM in presence of Turkey gizzard alpha-actinin and […] fluorescent labelled actin by TIRF microscopy analysis

CO[C@H]1[C@H](O[C@H]2/C=C\C=C\c3coc(n3)[C@H](C)[C@H](OC)C[C@@H](O)/C=C/C=C/C=C\[C@H](C)[C@@H]([C@@H](C)[C@@H](O)C[C@@H](C)O)OC(=O)\C=C/C=C/C=C\C(C)=C\[C@H]2C)O[C@H](C)[C@@H](O)[C@@H]1OC
inhibition [1]: Active | inhibition [2]: Active | Activity (HUVEC [3]): Active | inhibition [4]: Active | inhibition [5]: Active | Activity [6]: Active | Activity [7]: Active | Activity (HUVEC [8]): Active | IC50 (HUVEC [9]): 31.7 nM | IC50 [10]: 15.2 µM | inhibition [11]: Dose-dependent effect | Activity [12]: Active | Activity [13]: Active | inhibition [14]: Active | IC50 (HUVEC [15]): 2.98 to 3 nM | inhibition [16]: Active

C/C1=C/C(=O)O[C@@H]2C[C@@H](CC[C@H](C)/C=C\CC1)O[C@@](O)([C@@H]1CSC(=O)N1)C2 [LATRUNCULIN B]
inhibition [2]: inactive | inhibition [4]: inactive | inhibition [5]: inactive | Activity [6]: Active | IC50 (HUVEC [9]): 478 nM | IC50 [10]: 8.47 µM | inhibition [11]: Dose-dependent effect | Activity [12]: inactive | inhibition [14]: Active | IC50 (HUVEC [15]): 612 nM

CO[C@@H]1C[C@@H](O)/C=C/C=C/C=C\[C@H](C)[C@@H]([C@@H](C)[C@@H](O)C[C@@H](C)O)OC(=O)\C=C/C=C/C=C\C(C)=C\[C@@H](C)[C@@H](O)/C=C\C=C\c2coc(n2)[C@@H]1C
inhibition [2]: Active | inhibition [4]: Active | inhibition [5]: Active
